Measured values reported in EP3034610A1, “NOVEL TERPENOID COMPOUND AND METHOD FOR PRODUCING SAME” (The Kitasato Institute, priority 2013, dated 2015).

Experiments:
Assay type in all cases: cell-based
Conditions in all cases: 72 h treatment, OD 540 nm, tested 5-100 µg/mL
Mycobacterium smegmatis = experiment: Cytotoxicity, MTT assay (viability), Mycobacterium smegmatis
SKOV (ovarian cancer) = experiment: Cytotoxicity, MTT assay (viability), SKOV
[1] = system: Jurkat (T-cell lymphoblastic leukemia); experiment: Cytotoxicity, MTT assay (viability), Jurkat

Compound	IC50 (Mycobacterium smegmatis)	IC50 (SKOV (ovarian cancer))	IC50 [1]
trimethyl-methylenehexadecahydropyrene	IC50 = 50.08 µg/ml	not active	not active
tetramethylhexadecahydropyrenol	IC50 = 49.78 µg/ml	IC50 = 35.38 µ g/ml	IC50 = 29. 35 µ g/ml µg/ml
C=C(CCC=C(C)C)[C@@H]1CC[C@@]2(C)CCCC(C)=C2C1 [clavulatriene A]	not active	not active	IC50 = 5.63 µg/ml.
